Holding throughout (type): biochemical
One test concerns the target T1, PAD2 (Homo sapiens, UniProt Q9Y2J8).
T1 construct: made in house
The experiment in a line: Inactivation kinetics of PAD2 (COLDER citrulline assay). The conditions noted are these: for Ki: concentration of inhibitor that affords half-maximal inactivation; for Fold PAD selectivity: bracketed value under kinact/KI; for kinact/KI: marks: * nonlinear fit of kobs versus [I], ‡ linear fit, † single kobs. The method, then: (§1) Inactivation kinetics. […] After 15 min, reactions were quenched with liquid nitrogen and the production of citrulline was quantified using the COLDER assay. (Kearney, et al. Biochemistry 2005, 44, 10570-10582; Knipp, et al. Anal. Biochem. 2000, 286, 257-264.) The time-dependence of PAD inhibition was fit to the following equation 1, […] (1), using Grafit, version 5.0.11, where v is velocity, ν0 is initial velocity, k (or kobs is the pseudo-first-order rate constant of inactivation, and t is time. Upon reaching saturation, the concentration dependence of kobs was fit to equation 2, kobs=kinact[I]/(KI+[I]), (2), using Grafit, version 5.0.11, where kinact is the maximal rate of inactivation, KI is the concentration of inhibitor that affords half-maximal inactivation, and [I] is the concentration of inhibitor. When kobs with [I] varied linearly, kinact/KI was determined from the slope of the line. All the experiments were performed at least in duplicate.

The target of another test is T2, PAD1 (Homo sapiens, UniProt Q9ULC6).
T2 construct: made in house
T2 sequence (Q9ULC6 1-663): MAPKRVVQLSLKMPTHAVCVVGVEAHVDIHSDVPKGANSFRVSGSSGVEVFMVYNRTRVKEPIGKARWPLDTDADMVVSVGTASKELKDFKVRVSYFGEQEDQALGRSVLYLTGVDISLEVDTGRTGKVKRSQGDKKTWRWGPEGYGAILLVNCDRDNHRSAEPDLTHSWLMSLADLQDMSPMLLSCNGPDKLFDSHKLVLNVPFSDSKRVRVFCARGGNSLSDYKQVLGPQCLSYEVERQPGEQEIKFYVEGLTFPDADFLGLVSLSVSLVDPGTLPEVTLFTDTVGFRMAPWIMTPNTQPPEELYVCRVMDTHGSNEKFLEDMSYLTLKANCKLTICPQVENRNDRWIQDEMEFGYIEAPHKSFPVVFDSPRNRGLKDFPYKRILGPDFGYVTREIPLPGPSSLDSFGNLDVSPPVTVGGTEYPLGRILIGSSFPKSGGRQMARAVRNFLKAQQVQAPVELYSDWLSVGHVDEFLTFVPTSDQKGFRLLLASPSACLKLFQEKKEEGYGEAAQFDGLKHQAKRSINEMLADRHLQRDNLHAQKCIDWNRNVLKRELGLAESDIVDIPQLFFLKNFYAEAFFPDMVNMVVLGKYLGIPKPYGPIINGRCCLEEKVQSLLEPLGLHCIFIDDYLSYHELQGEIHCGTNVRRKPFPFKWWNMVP
The experiment in a line: Inactivation kinetics of PAD1 (COLDER citrulline assay). Conditions: for Ki / kinact/KI / kinact / fold less potent than 1 (drop in potency for PAD1): PAD1; for Ki: concentration of inhibitor that affords half-maximal inactivation; for kinact/KI: marks: * nonlinear fit of kobs versus [I], ‡ linear fit, † single kobs; for kinact: read-out: kinact (converted); for Fold PAD selectivity: PAD1 over the other PADs, bracketed value under kinact/KI; for fold less potent than 1 (drop in potency for PAD1): relative to parent compound 1. The method, then: as §1

Another test concerns the target T3, PAD3 (Homo sapiens, UniProt Q9ULW8).
T3 construct: made in house
T3 sequence (Q9ULW8 1-664): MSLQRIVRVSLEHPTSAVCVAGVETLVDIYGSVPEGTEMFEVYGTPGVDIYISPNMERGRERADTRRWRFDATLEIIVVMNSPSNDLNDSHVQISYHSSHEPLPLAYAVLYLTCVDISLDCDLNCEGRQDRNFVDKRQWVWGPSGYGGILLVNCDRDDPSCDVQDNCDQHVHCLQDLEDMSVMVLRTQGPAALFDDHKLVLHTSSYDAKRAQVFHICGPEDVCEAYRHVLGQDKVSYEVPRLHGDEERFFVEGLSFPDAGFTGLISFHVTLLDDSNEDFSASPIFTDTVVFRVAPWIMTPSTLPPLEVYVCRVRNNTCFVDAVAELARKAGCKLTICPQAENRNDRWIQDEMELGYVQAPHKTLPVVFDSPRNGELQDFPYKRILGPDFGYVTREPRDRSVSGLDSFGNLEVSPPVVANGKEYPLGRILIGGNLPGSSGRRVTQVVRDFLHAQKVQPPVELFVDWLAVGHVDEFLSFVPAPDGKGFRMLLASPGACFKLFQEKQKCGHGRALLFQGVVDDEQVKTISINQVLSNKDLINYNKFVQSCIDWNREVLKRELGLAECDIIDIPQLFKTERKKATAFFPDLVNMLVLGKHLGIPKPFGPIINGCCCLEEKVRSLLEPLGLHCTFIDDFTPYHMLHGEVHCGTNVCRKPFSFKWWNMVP
The experiment in a line: Inactivation kinetics of PAD3 (COLDER citrulline assay). The conditions noted are these: for Fold PAD selectivity: bracketed value under kinact/KI; for kinact/KI: marks: * nonlinear fit of kobs versus [I], ‡ linear fit, † single kobs. The protocol:
as §1

In the next test the target is T4, PAD4 (Homo sapiens, UniProt Q9UM07).
T4 construct: made in house
Briefly: Inactivation kinetics of PAD4 (COLDER citrulline assay). The conditions noted are these: for Fold PAD selectivity: bracketed value under kinact/KI; for kinact/KI: marks: * nonlinear fit of kobs versus [I], ‡ linear fit, † single kobs. The protocol: as §1

The mark [1] stands for this setting: read-out: kinact/KI (converted).

The source of these data is US12448358B2, “Inhibitors of protein arginine deiminase 1 and methods of preparation and use thereof” (University of Massachusetts, priority 2019, dated 2025).

SMILES strings stand for the structures. Like-named read-outs stand apart in the source and are kept apart here.

T4 sequence (Q9UM07 whole entry): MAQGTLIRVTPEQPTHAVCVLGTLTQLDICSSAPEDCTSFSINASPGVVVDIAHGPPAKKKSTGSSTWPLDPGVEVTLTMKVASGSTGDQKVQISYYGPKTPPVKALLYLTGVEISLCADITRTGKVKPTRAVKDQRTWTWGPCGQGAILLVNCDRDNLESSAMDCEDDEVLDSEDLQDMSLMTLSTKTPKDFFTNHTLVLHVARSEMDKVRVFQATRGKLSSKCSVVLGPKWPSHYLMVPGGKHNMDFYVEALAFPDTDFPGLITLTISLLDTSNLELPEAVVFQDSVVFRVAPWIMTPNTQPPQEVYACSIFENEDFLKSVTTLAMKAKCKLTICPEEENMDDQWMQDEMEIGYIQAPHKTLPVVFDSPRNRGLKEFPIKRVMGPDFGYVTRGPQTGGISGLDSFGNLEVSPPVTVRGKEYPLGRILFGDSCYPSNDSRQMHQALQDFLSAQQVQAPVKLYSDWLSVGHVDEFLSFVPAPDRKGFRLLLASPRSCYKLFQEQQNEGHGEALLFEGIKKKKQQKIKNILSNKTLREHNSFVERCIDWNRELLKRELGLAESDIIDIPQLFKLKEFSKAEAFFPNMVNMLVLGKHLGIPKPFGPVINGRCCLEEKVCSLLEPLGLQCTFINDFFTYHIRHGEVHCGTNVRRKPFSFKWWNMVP
T1 sequence (Q9Y2J8 whole entry): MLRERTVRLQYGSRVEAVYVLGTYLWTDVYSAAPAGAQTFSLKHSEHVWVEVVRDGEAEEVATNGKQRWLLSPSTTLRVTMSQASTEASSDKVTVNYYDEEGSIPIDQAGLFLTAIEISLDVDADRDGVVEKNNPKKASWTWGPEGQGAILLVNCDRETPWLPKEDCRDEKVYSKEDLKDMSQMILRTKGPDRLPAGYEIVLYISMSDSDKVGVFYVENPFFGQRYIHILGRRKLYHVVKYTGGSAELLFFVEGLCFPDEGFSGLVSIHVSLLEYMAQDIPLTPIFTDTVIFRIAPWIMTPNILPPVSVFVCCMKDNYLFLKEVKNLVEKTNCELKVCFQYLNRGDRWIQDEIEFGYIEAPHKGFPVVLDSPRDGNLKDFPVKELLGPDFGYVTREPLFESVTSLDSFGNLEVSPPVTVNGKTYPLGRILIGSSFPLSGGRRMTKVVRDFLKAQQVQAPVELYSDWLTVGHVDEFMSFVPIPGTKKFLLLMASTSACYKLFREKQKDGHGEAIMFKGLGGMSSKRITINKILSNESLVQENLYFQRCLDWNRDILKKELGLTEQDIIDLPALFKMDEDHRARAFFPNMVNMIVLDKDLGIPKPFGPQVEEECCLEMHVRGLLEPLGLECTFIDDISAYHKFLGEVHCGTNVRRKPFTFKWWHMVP

For the molecule `N=C(CCl)NCCC[C@H](NC(=O)c1cc(I)cc(I)c1O)c1nc2ccccc2[nH]1` [Compound 2], the Ki at PAD2 was found to be 93.7 µM.
In turn, `COc1c(I)cc(I)cc1C(=O)NC(CCCNC(=N)CF)c1nc2ccccc2[nH]1` (stereo not shown) [Compound 3] returned a Ki on PAD1 of 44.3 µM. For the same molecule, the kinact/KI is 97.8 M⁻¹ s⁻¹ at PAD1 (setting [1]), 36 M⁻¹ s⁻¹ at PAD3 (setting [1]), 27.5 M⁻¹ s⁻¹ on PAD2 (setting [1]) and 12.5 M⁻¹ s⁻¹ at PAD4 (setting [1]). For the same molecule, at PAD1, the kinact was 0.00433 s⁻¹. Moreover, the “Fold PAD selectivity” value on PAD1 is “[8] fold”; at PAD3, “[3] fold”; at PAD2 it was “[2] fold”; at PAD4, “[1] fold”.
At PAD2, `COc1c(I)cc(I)cc1C(=O)N[C@@H](CCCNC(=N)CCl)c1nc2ccccc2[nH]1` [Compound 4] showed a Ki of 208 µM.
As to `N=C(CF)NCCC[C@H](NC(=O)c1cc(I)cc(I)c1)c1nc2ccccc2[nH]1` [Compound 5], the Ki on PAD1 stood at 30.2 µM. For the same molecule, the kinact/KI on PAD1 (setting [1]) is 121 M⁻¹ s⁻¹; at PAD3 (setting [1]), 41.2 M⁻¹ s⁻¹; at PAD2 (setting [1]), 12.8 M⁻¹ s⁻¹; at PAD4 (setting [1]) it was 17.8 M⁻¹ s⁻¹. The inactivation rate constant (kinact) on PAD1 was 0.00367 s⁻¹. Also, the “Fold PAD selectivity” value on PAD1 is “[9] fold”; at PAD3, “[3] fold”; on PAD2 it was “[1] fold”; on PAD4, “[1] fold”.
In the case of `N=C(CCl)NCCC[C@H](NC(=O)c1ccccc1O)c1nc2ccccc2[nH]1` [Compound 8], the kinact/KI at PAD1 (setting [1]) is 10 M⁻¹ s⁻¹; on PAD3 (setting [1]), 176 M⁻¹ s⁻¹; at PAD2 (setting [1]) it was 46.7 M⁻¹ s⁻¹; at PAD4 (setting [1]), 684 M⁻¹ s⁻¹. For the same molecule, the “Fold PAD selectivity” value at PAD1 was “[1] fold”; on PAD3 it was “[18] fold”; on PAD2, “[5] fold”; at PAD4 it was “[68] fold”. The molecule further registered a Ki on PAD4 (concentration of inhibitor that affords half-maximal inactivation) of 25.1 µM. The maximal inactivation rate constant (kinact) on PAD4 (read-out: kinact (converted)) is 0.0172 s⁻¹.
With `CC(C)c1cc(C(=O)N[C@@H](CCCNC(=N)CF)c2nc3ccccc3[nH]2)c(O)c(C(C)C)c1` [Compound 9], the kinact/KI on PAD1 is reported as 190 ± 20^† M^−1min^−1; at PAD3, 580 ± 120^† M^−1min^−1; at PAD2 it was 400 ± 30^† M^−1min^−1; on PAD4, 240 ± 20^† M^−1min^−1. The “Fold PAD selectivity” value at PAD1 was “[1] fold”; on PAD3, “[3] fold”; at PAD2, “[2] fold”; at PAD4 it was “[1] fold”.
Regarding `CC(C)c1cc(C(=O)N[C@@H](CCCNC(=N)CCl)c2nc3ccccc3[nH]2)c(O)c(C(C)C)c1` [Compound 10], the Ki on PAD2 was 131 µM.
The molecule `N=C(CF)NCCC[C@H](NC(=O)c1cc(Br)cc(Br)c1O)c1nc2ccccc2[nH]1` [Compound 11] displayed a Ki at PAD1 of 54.8 µM. The kinact/KI at PAD1 (setting [1]) is 54.7 M⁻¹ s⁻¹; at PAD3 (setting [1]) it was 7 M⁻¹ s⁻¹; at PAD2 (setting [1]) it was 2.17 M⁻¹ s⁻¹; on PAD4 (setting [1]), 4.17 M⁻¹ s⁻¹. Moreover, the kinact at PAD1 is 0.003 s⁻¹. Further, the “fold less potent than 1 (drop in potency for PAD1)” value on PAD1 is on record as 3 fold. In addition, the “Fold PAD selectivity” value at PAD1 is 25 fold; at PAD3, “[3] fold”; at PAD2 it was “[1] fold”; on PAD4, “[2] fold”.
`N=C(CCl)NCCC[C@H](NC(=O)c1cc(Br)cc(Br)c1O)c1nc2ccccc2[nH]1` [Compound 12] displayed a Ki at PAD2 of 91.5 µM.
Turning to `N=C(CF)NCCC[C@H](NC(=O)c1cc(Cl)cc(Cl)c1O)c1nc2ccccc2[nH]1` [Compound 13], the Ki at PAD1 was 124 µM. The kinact/KI is 21.5 M⁻¹ s⁻¹ at PAD1 (setting [1]), 9.17 M⁻¹ s⁻¹ at PAD3 (setting [1]), 2.17 M⁻¹ s⁻¹ on PAD2 (setting [1]) and 4.83 M⁻¹ s⁻¹ at PAD4 (setting [1]). Also, the kinact on PAD1 was 0.00267 s⁻¹. On PAD1, the “fold less potent than 1 (drop in potency for PAD1)” value turned out to be 8 fold. For the same molecule, the “Fold PAD selectivity” value is 10 fold at PAD1, “[4] fold” on PAD3, “[1] fold” on PAD2 and “[2] fold” on PAD4.
For the molecule `N=C(CCl)NCCC[C@H](NC(=O)c1cc(Cl)cc(Cl)c1O)c1nc2ccccc2[nH]1` [Compound 14], the kinact/KI on PAD1 was 5300 ± 210^‡ M^−1min^−1; on PAD3 it was 5500 ± 300^‡ M^−1min^−1; at PAD2, 3400 ± 70^‡ M^−1min^−1; at PAD4, 2600 ± 70^‡ M^−1min^−1. The “Fold PAD selectivity” value on PAD1 was “[2] fold”; on PAD3, “[2] fold”; on PAD2, “[1] fold”; on PAD4 it was “[1] fold”.
Turning to `N=C(CF)NCCC[C@H](NC(=O)c1cc(I)ccc1O)c1nc2ccccc2[nH]1` [Compound 15], on PAD1, the Ki stood at 46.7 µM. The kinact/KI on PAD1 (setting [1]) is 25 M⁻¹ s⁻¹; on PAD3 (setting [1]) it was 8.33 M⁻¹ s⁻¹; on PAD2 (setting [1]), 2 M⁻¹ s⁻¹; at PAD4 (setting [1]), 10.7 M⁻¹ s⁻¹. Besides, at PAD1, the kinact was 0.00117 s⁻¹. For the same molecule, the “fold less potent than 1 (drop in potency for PAD1)” value at PAD1 is listed as 7 fold. The “Fold PAD selectivity” value on PAD1 was 13 fold; at PAD3, “[4] fold”; on PAD2 it was “[1] fold”; at PAD4 it was “[5] fold”.
As for `N=C(CCl)NCCC[C@H](NC(=O)c1cc(I)ccc1O)c1nc2ccccc2[nH]1` [Compound 16], the kinact/KI at PAD1 is 3900 ± 100^‡ M^−1min^−1; on PAD3 it was 5000 ± 280^‡ M^−1min^−1; on PAD2, 1700 ± 70^‡ M^−1min^−1; at PAD4, 3600 ± 70^‡ M^−1min^−1. The “Fold PAD selectivity” value was “[2] fold” on PAD1, “[3] fold” on PAD3, “[1] fold” on PAD2 and “[2] fold” at PAD4.
`N=C(CF)NCCC[C@H](NC(=O)c1cccc(I)c1O)c1nc2ccccc2[nH]1` [Compound 17]: the kinact/KI on PAD1 is recorded as 300 ± 30^† M^−1min^−1; at PAD3 it was 240 ± 30^† M^−1min^−1; on PAD2, 110 ± 10^† M^−1min^−1; on PAD4 it was 180 ± 20^† M^−1min^−1. Further, the “fold less potent than 1 (drop in potency for PAD1)” value at PAD1 turned out to be 35 fold. Besides, the “Fold PAD selectivity” value on PAD1 is 3 fold; at PAD3, “[2] fold”; at PAD2 it was “[1] fold”; at PAD4 it was “[2] fold”.
For `N=C(CCl)NCCC[C@H](NC(=O)c1cccc(I)c1O)c1nc2ccccc2[nH]1` [Compound 18], the kinact/KI at PAD1 was 4100 ± 300^‡ M^−1min^−1; on PAD3, 1170 ± 40^† M^−1min^−1; on PAD2, 2210 ± 270^† M^−1min^−1; on PAD4, 3160 ± 550^† M^−1min^−1. Moreover, the “Fold PAD selectivity” value was “[4] fold” on PAD1, “[1] fold” at PAD3, “[2] fold” at PAD2 and “[3] fold” on PAD4.
As for `N=C(CCl)NCCC[C@H](NC(=O)c1cc(I)c(F)c(I)c1O)c1nc2ccccc2[nH]1` [Compound 20], the Ki at PAD2 was found to be 17.5 µM.

As usually defined, the kinact is the rate constant of inactivation at saturating inhibitor.
